What is called IC50 is the concentration at which inhibition is half-maximal. Read a low IC50 as higher potency.

This is an account of results in ChEMBL document CHEMBL1150118, “Agonodepsides a and B: two new depsides from a filamentous fungus F7524” (J Nat Prod, 2002).

The target of experiment [1] is T1, Enoyl-[acyl-carrier-protein] reductase [NADH] (Mycobacterium tuberculosis) (UniProt P9WGR1).
T1 sequence (whole entry): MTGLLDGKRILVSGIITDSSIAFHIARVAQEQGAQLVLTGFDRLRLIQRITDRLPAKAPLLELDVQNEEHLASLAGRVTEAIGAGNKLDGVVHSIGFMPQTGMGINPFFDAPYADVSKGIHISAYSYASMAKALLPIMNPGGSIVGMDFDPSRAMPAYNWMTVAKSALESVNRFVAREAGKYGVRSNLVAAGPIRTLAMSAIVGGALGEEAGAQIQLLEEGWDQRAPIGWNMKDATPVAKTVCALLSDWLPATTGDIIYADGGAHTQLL
The experiment is described as follows: inhibition of Mycobacterium tuberculosis InhA at 100 uM after 20 mins by fluorometric assay.

The target of experiment [2] is T2, Enoyl-[acyl-carrier-protein] reductase [NADH] (Mycobacterium tuberculosis, UniProt P9WGR1).
T2 sequence (P9WGR1 whole entry): T1 sequence (whole entry)
The experiment is described as follows: inhibition of Mycobacterium tuberculosis InhA after 20 mins by fluorometric assay.

Structures are written as SMILES. Activity calls are given as the source filed them. The rule behind the calls is not given here.

With `C/C=C(\C)c1cc(O)c(C)c(O)c1C(=O)Oc1cc(/C(C)=C/C)c(C(=O)O)c(O)c1C`, the outcome in experiment [1] was inactive.

`C/C=C(\C)c1cc(O)c(C)c(OC(=O)c2c(/C(C)=C/C)cc(O)c(C)c2O)c1` [AGONODEPSIDE A] showed an IC50 in experiment [2] of 75 µM.
